Test results published in ChEMBL document CHEMBL1125668, “Synthesis and anti-HIV activity of 2-, 3-, and 4-substituted analogues of 1-[(2-hydroxyethoxy)methyl]-6-(phenylthio)thymine (HEPT)” (J Med Chem, 1991).

Columns and labels:
[1] = test system: Human immunodeficiency virus 1; assay: Inhibitory activity against HIV-1 (HTLV-IIIB strain) replication in MT-4 cells; type: functional, organism-based; conditions: Human immunodeficiency virus 1, MT4
[2] = test system: Human immunodeficiency virus 1; assay: Cytotoxic concentration of compound required to reduce the viability of mock infected MT-4 cells against the HIV-1 (HTLV-IIIB)induced cytopathic effect; type: functional; conditions: Human immunodeficiency virus 1, MT4
[3] = test system: Human immunodeficiency virus 2; assay: Inhibitory activity against HIV-2(LAV-2ROD strain) replication in MT-4 cells; type: functional, organism-based; conditions: Human immunodeficiency virus 2, MT4
[4] = test system: Human immunodeficiency virus 1; assay: Cytotoxic concentration of compound required to incorporate [5-3H]-Urd into RNA of mock infected peripheral blood lymphocytes in HIV-1 (HTLV-IIIB)by 50%; type: functional
[5] = test system: Human immunodeficiency virus 2; assay: Inhibitory activity against HIV-2(LAV-2EHO strain) replication in MT-4 cells; type: functional, organism-based; conditions: Human immunodeficiency virus 2, MT4
[6] = test system: Human immunodeficiency virus 1; assay: Inhibitory activity against HIV-1 (HTLV-IIIB strain) replication in peripheral blood lymphocytes; type: functional, organism-based
[7] = test system: Human immunodeficiency virus 1; assay: Inhibitory activity against HIV-1 (HTLV-IIIRF strain) replication in MT-4 cells; type: functional, organism-based; conditions: Human immunodeficiency virus 1, MT4

Row | EC50 [1] | Structure (SMILES) | CC50 [2] | EC50 [3] | CC50 [4] | EC50 [5] | EC50 [6] | EC50 [7]
1 | 6.3 µM | Nc1ncnc2c1ncn2[C@H]1CC[C@@H](CO)O1 | > 500 µM | 7.2 µM | – | – | – | –
2 | > 198 µM | O=c1cc(Sc2ccccc2)n(COCCO)c(=S)[nH]1 | 198 µM | – | – | – | – | –
3 | > 250 µM | Nc1cc(Sc2ccccc2)n(COCCO)c(=O)n1 | > 250 µM | – | – | – | – | –
4 | > 27 µM | Cc1c(Sc2ccccc2)n(COCCO)c(=O)[nH]c1=S | 27 µM | – | – | – | – | –
5 | > 374 µM | Cc1c(Sc2ccccc2)n(COCCO)c(=O)n(C)c1=O | > 374 µM | – | – | – | – | –
6 | > 40 µM | Cc1c(Sc2ccccc2)n(COCCO)c(=O)n(Cc2ccccc2)c1=O | 40 µM | – | – | – | – | –
7 | > 91 µM | Cc1c(N)nc(=O)n(COCCO)c1Sc1ccccc1 | 91 µM | – | – | – | – | –
8 | > 4.1 µM | O=c1[nH]c(=S)cc(Sc2ccccc2)n1COCCO | 4.1 µM | – | – | – | – | –
9 | 0.98 µM | Cc1c(Sc2ccccc2)n(COCCO)c(=S)[nH]c1=O | 123 µM | > 100 µM | 292 µM | > 100 µM | 2.9 µM | 2.5 µM

Row | Structure (SMILES) | EC50 [1] | CC50 [2] | EC50 [3] | CC50 [4] | EC50 [5] | EC50 [6] | EC50 [7]
10 | Cc1c(Sc2ccccc2)n(COCCO)c(=O)[nH]c1=O [HEPT] | 7 µM | 740 µM | > 250 µM | 640 µM | > 250 µM | 7.9 µM | 8.1 µM
11 | Cc1cn([C@H]2C[C@H](N=[N+]=[N-])[C@@H](CO)O2)c(=O)[nH]c1=O [ZIDOVUDINE] | 0.003 µM | 7.8 µM | 0.0028 µM | – | – | – | –
